Here are results for 7 substances from publication PMC2832019, “In Vitro Metabolic and Mitogenic Signaling of Insulin Glargine and Its Metabolites” (PLoS ONE, 2010).

One assay deals with human IR-B. Briefly: Competitive receptor binding (SPA), IR-B. To be noted: for IC50: SPA, WGA PVT PEI beads, 2 µg membranes from CHO cells overexpressing IR-B, 100 pmol/L A14[^125I]-insulin, pH 7.8, 12 h, 23°C, means ± SEM, at least three times, read-out: IR-B affinity IC50; for IR-B binding, less active than human insulin: decrease relative to human insulin. How it is done: The binding of the different insulins to the human IR-A and IR-B was analyzed in a competitive binding assay using the scintillation proximity assay as previously described, [30]. […] Briefly, cells were grown to confluence and gently detached, transferred to a centrifugation tube followed by centrifugation for 10 minutes at 600×g at 4°C. The pellet was resuspended in ice-cold 2.25 STM buffer (2.25 mol/L sucrose, 5 mmol/L Tris-HCl pH 7.4, 5 mmol/L MgCl2, 1x Complete Protease Inhibitor) and disrupted using a hand-held Dounce homogenizer followed by sonication. This homogenate was transferred to a centrifugation tube, overlaid with 0.8 STM buffer (0.8 mol/L sucrose, 5 mmol/L Tris-HCl pH 7.4, 5 mmol/L MgCl2, 1x Complete Protease Inhibitor) and centrifuged for 90 minutes at 100 000×g at 4°C. The emerging pellicle at the interface was collected, transferred to a new tube and washed two times with PBS by centrifugation for 10 minutes at 1500×g. The final pellet was resuspended in a small volume of dilution buffer (50 mmol/L Tris-HCl pH 7.4, 5 mmol/L MgCl2, 1x Complete Protease Inhibitor) and homogenized with a Dounce homogenizer. These plasma membrane preparations were stored until usage at –80°C.
(§1) Binding experiments were conducted in 96-well microplates. Per well 2 µg of membranes were incubated with 0.25 mg wheat germ agglutinin polyvinyltoluene polyethylenimine SPA beads, 100 pmol/L A14[^125I]-insulin and various concentrations of unlabeled insulins in a binding buffer containing 0.05 mol/L Tris-HCl pH 7.8, 0.15 mol/L NaCl, 0.1% BSA, Complete Protease Inhibitor for 12 hours at room temperature (23°C). The radioactivity was measured at equilibrium in a microplate scintillation counter (Wallac Microbeta, Freiburg, Germany).
(§2) For each experiment, IC50 or EC50 values were obtained using the 4-parameter logistic model according to Ratkowsky and Reedy (1986). The adjustment was obtained by non-linear regression using the Levenberg-Marquardt algorithm in SAS v9.1.3 software via Biost@t-Speed V2.0-LTS internal application. If necessary, lower and upper asymptotes were set to 0 and 100, respectively.
The binding of a constant concentration of [^125I]insulin to plasma membranes from CHO cells overexpressing either IR-A or IR-B was measured in presence of increasing concentrations of unlabeled competing ligand after incubation at room temperature for 12 h. All data has been corrected for non-specific binding and are expressed as percentage of [^125I]insulin in absence of competing ligand. To analyze the insulin-stimulated activation and subsequent autophosphorylation of the insulin receptor CHO cells overexpressing the human IR-A (C) or IR-B (D) were stimulated for 15 min at 37°C with increasing concentrations of peptides, then the cells were fixed with 3.7% PFA and the amount of phosphotyrosines was analyzed via In-Cell Western. The data represent mean values ± SEM of at least 3 individual experiments measured in quadruplicate.

For another assay, the target named is human IGF1R. In words: Competitive binding, IGF1R. Conditions: for IC50: [^125I]IGF-1 as radioactive ligand, means ± SEM, at least three times, read-out: IGF1R affinity IC50. How it is done:
as §1, §2
(§3) Figure 4 Activity of insulin analogs on the human IGF1R and mitogenic potential in Saos-2 cells. Analysis of binding to the human IGF1R using [^125I]IGF-1 as radioactive ligand (A) and analysis of the insulin-stimulated autophosphorylation of the human IGF1R overexpressed in MEF cells (B) were done as described in figure 2 and Materials and Methods. Data are given as means ± SEM. […] Confluent cells were starved for 4 h and then incubated for 19 h with increasing concentrations of IGF-1, insulin or analog in serum free medium. [^14C]thymidine was added for further 6 h and the radioactivity measured in a Wallac Micro Scintillation counter. Data are given as means ± SEM from octuplicate sample.

The test system of another assay is Saos-2 cells. Briefly: Mitogenic potency: thymidine incorporation in Saos-2 cells. To be noted: for EC50: [2-^14C]-thymidine incorporation, 19 h stimulation plus 6 h thymidine, serum-free, 37°C, octuplicate samples, means ± SEM, at least three times; for mitogenicity in words: relative to glargine and human insulin. Format: cell-based, human. As for the experimental part: The human osteosarcoma cell line Saos-2 was obtained in frozen aliquots from the European Collection of Cell Cultures (ECACC, Salesbury, UK). Cells were grown in McCoy's 5a medium (Gibco, Grand Island, NY, USA) supplemented with 10% fetal calf serum (PAN Biotech GmbH, Aidenbach, Germany) and 2 mM (final) L-glutamine (Sigma Aldrich, Irvine, UK). Subconfluent cultures (9-15×10^6 cells per 225 cm^2 flask) were used to determine the mitogenic activity of the test compounds.
For measuring thymidine incorporation 40,000 cells were seeded per well of a 96-well Cytostar-T scintillation microplate (GE Healthcare, Amersham, UK) and the plates were incubated overnight at 37°C in a humidified atmosphere containing 5% CO2. The serum-containing medium was removed and replaced by 200 µL serum-free McCoy's 5a medium supplemented with 0.5% (w/v) BSA (Gibco, Grand Island, NY, USA), 2 mM L-glutamine and antibiotics (penicillin 100 units, streptomycin 100 units, amphotericin B 0.25 µg/mL final, Gibco, Grand Island, NY, USA). The plates were incubated for 4 hours at 37°C in a humidified atmosphere containing 5% CO2. 150 µL of the medium were removed and substituted by 150 µL of serum-free medium containing the different insulins or IGF-1 (Cell Sciences, Canton, MA, USA) at the indicated concentrations and the plates were incubated at 37°C in a humidified atmosphere containing 5% CO2. After 19 hours 10 µL of [2-^14C]-thymidine solution ([…], 3.7 MBq/mL) diluted in serum-free McCoy's 5a medium were added per well to yield a final concentration of 500 nCi/mL and the plates were incubated for 6 hours at 37°C in a humidified atmosphere containing 5% CO2. ^14C-thymidine incorporation was measured in a Wallac 1450 Micro Beta Trilux Scintillation counter. Dose-response curves were obtained by testing ten different concentrations of the ligands with every concentration tested by octuplicate samples.
as §2, §3

“[Gly^A21,des-Thr^B30]insulin [Glargine M2]”: on human IR-B, the IC50 amounted to 1.09 ± 0.06 nM and the “IR-B binding, less active than human insulin” value was 40–50%. Moreover, at human IGF1R, the IC50 is 427 ± 20.6 nM and the “IGF1R affinity in words” value is on record as “significantly reduced”. Moreover, in the assay with Saos-2 cells, the EC50 came out at 17.9 ± 6.5 nM; the mitogenicity in words entry is “significantly less mitogenic than glargine and comparable to normal insulin”.

Turning to [Gly^A21,Arg^B31]insulin [Glargine IM], on human IR-B, the IC50 is 1.08 ± 0.06 nM and the “IR-B binding, less active than human insulin” value was 40–50%. In addition, on human IGF1R, the half-maximal inhibitory concentration (IC50) came to 80 ± 10.2 nM. In the assay on Saos-2 cells, the concentration for a half-maximal effect (EC50) worked out at 3.75 ± 0.31 nM and the mitogenicity in words entry was “reduced relative to insulin glargine”.

As to [Asp^B10]insulin, the IC50 worked out at 0.21 ± 0.03 nM on human IR-B and 104 ± 12.8 nM on human IGF1R. Besides, the “IR-B binding, more potent relative to human insulin” value in the assay with human IR-B (relative to human insulin) is on record as 2.7 fold. For the same substance, the EC50 with Saos-2 cells was 1.52 ± 0.15 nM.

Consider “Human insulin: human insulin produced by recombinant DNA techniques or enzymatic semisynthesis”, for which, in the assay with Saos-2 cells, the EC50 came out at 12.2 ± 0.27 nM.

As to [Gly^A21]insulin [Glargine M1], on human IR-B, the IC50 is 1.35 ± 0.2 nM and the “IR-B binding, less active than human insulin” value is listed as 40–50%. For the same substance, at human IGF1R, the IC50 is 649 ± 31.9 nM and the “IGF1R affinity in words” value is reported as “significantly reduced”. In addition, in the assay on Saos-2 cells, the EC50 came out at 16.2 ± 2.35 nM; the mitogenicity in words entry was “significantly less mitogenic than glargine and comparable to normal insulin”.

With “[Gly^A21,Arg^B31,Arg^B32]insulin [Glargine]”, the results for the IC50 at human IR-B and at human IGF1R were 1.1 ± 0.12 nM and 63.2 ± 19.9 nM, respectively. Further, the “IR-B binding, less active than human insulin” value with human IR-B is on record as 40–50%. In addition, in the assay on Saos-2 cells, the EC50 was 1.61 ± 0.26 nM.

As for “IGF-1: IGF-1 obtained from R&D Systems and Cell Sciences”, the “IR-B affinity less potent than human insulin” value in the assay with human IR-B (IR-B, relative to human insulin) was roughly 300 fold. Moreover, the IC50 is 171 ± 50 nM on human IR-B and 0.89 ± 0.19 nM on human IGF1R. Besides, the EC50 in the assay with Saos-2 cells stood at 0.22 ± 0.05 nM.
